Here are results for 2 substances from PMC8708875 (Pharmaceutics, 2021).

In the series the test system is Glut4. Kind of series: GLUT4 translocation assay (subcellular fractions, Western blot). The format is cell-based, mouse. Here is the method:
C2C12 differentiated myotubes were starved with free-FBS low glucose DMEM for 3 h, and then treated with saline or 5 µM of BMS-536924 insulin receptor inhibitor (Sigma-Aldrich, Sao Paulo, Brazil) for 30 min. Next, C2C12 were incubated in the presence of either vehicle, insulin (100 nM) or Ric4 (100 µM) for 30 min. As described by Tortorella and Pilch, 2002, cells were washed three times with PBS, and homogenized with 40 strokes of a glass tissue grinder in buffer containing sucrose 255 mM, disodium 4 mM, EDTA 20 mM, 4-(2-hydroxyethyl)-1-piperazineethanesulfonic acid (HEPES) 10 mM, pH 7.4, leupeptin 10 µM, pepstatin 1µM, aprotinin 1 µM, phenylmethylsulfonyl fluoride (PMSF) 1 mM, and benzamidine 5 mM (HES buffer). The homogenate was centrifuged at 19,000× g for 20 min. The pellet was saved (P1). The supernatant was recovered and centrifuged at 40,000× g for 20 min. The pellet (MF1) was resuspended in HES buffer. The supernatant was further centrifuged at 180,000× g for 1.5 h and the pellet (MF2) was resuspended in HES buffer. Both pellets MF1 and MF2, referred to as microsomal fraction (MF) correspond to high- and low-density microsomes. The pellet from the first centrifugation (P1) was resuspended in HES buffer, layered onto a 1.12 M sucrose cushion in 20 mM HEPES and 1 mM disodium EDTA, and centrifuged at 100,000× g for 1 h. The pellet (nuclear/endoplasmic reticulum fraction -N/ER) was resuspended in a buffer containing 20 mM Tris (pH 7.4), 50 mM NaCl, 2% Nonidet P-40, 0.5% deoxycholate, 0.2% SDS, and the protease inhibitor cocktail (#P8340; Sigma Aldrich, SP, Brazil). The interphase of the sucrose cushion was collected and pelleted at 40,000× g for 20 min. This PM-containing pellet (PM) was resuspended in PBS plus protease inhibitors. All centrifugations were performed at 4 °C with a Beckman Coulter Ultracentrifuge. Total protein of all samples was determined using Pierce™ BCA Protein Assay Kit (ThermoFisher, Sao Paulo, Brazil). Proteins were submitted to Western blot analysis as described above, using as primary antibody anti-Glut4 (1:1000, Cell Signaling, Boston, MA, USA).
Figure 4 Glucose uptake and GLUT4 translocation induced by Ric4 in C2C12 cells. C2C12 cells were previously incubated in serum-free and glucose-free DMEM medium, then incubated with HEPES buffer for 30 min and then incubated for a further 30 min in glucose-uptake buffer containing vehicle, Ric4 (100 µM), or insulin (100 nM) in the presence of ^3H-glucose (1 µCi/mL) or 2-NBDG (80 µM). After incubations cells were lysed with 50 μL of 0.1 N NaOH and fluorescence or radiation of aliquots from the lysate were measured (A). Epididymal adipose tissue explants (20–25 mg) were incubated in Krebs–Ringer bicarbonate buffer containing glucose 5.5 mM and 1 μCi/mL of ^3H-deoxyglucose supplemented with 2% fatty acid-free for 30 min at 37 °C in the presence or absence of insulin (100 nM) or Ric4 (100 µM). The explants were processed to evaluate the uptake of ^3H-deoxyglucose (B). Myotubes were previously incubated in serum-free and glucose-free DMEM medium and then treated with control vehicle PBS or Ric4 (100 µM) for 30 min. Proteins from subcellular fractions: N/ER (C), microsomal (D), plasma membrane (E), were isolated and the expression Glut4 was analyzed by Western blot. Images were quantified using ImageJ 1.49 software. The statistical comparisons were performed using analysis of variance (ANOVA), followed by ad-hoc Tukey’s test using GraphPad Prism software * p < 0.05; # p < 0.05; **** p < 0.0001.
A general note: Immunoblotting shows a protein as a band on a membrane.

Setting [1] is: C2C12 myotubes, Ric4 100 µM, insulin 100 nM, 30 min, Western blot.

Like-named read-outs stand apart in the source and are kept apart here.

Consider Insulin, for which, under setting [1], the “Glut4 presence in microsomal membranes” value is on record as “not observed”, the “translocation of Glut4 to plasma membrane” value is listed as “induced translocation of Glut4 to plasma membrane” and the “translocation of Glut4 to rough endoplasmic reticulum (RER) membranes (N/ER fraction)” value is listed as “not observed”.
“LASVSTVLTSKYR [Ric4, intracellular peptide derived from hemoglobin alpha subunit, last 13 C-terminal amino acids]”: the “Glut4 presence in microsomal membranes” value is reported as “decreasing”. Besides, under setting [1], the “translocation of Glut4 to plasma membrane” value is listed as “induced translocation of Glut4 to plasma membrane” and the “translocation of Glut4 to rough endoplasmic reticulum (RER) membranes (N/ER fraction)” value was “increased”.
